# According to ChEMBL document CHEMBL4477222, “Discovery of Novel Thiophene-Based, Thumb Pocket 2 Allosteric Inhibitors of the Hepatitis C NS5B Polymerase with Improved Potency and Physicochemical Profiles” (J Med Chem, 2016):
# pEC50: −log10 of the molar value. Active and inactive are the calls of the source. The rule behind the calls is not given here.
# How the values were obtained:
# [1] = Cytotoxicity against human Huh7ET cells assessed as reduction in cell viability after 4 days; format: cell-based
# [2] = Cytotoxicity against human W11.8 cells assessed as reduction in cell viability after 4 days; format: cell-based
# [3] = target: DNA polymerase beta (Homo sapiens) (UniProt P06746); test: Inhibition of human DNA polymerase-beta by fluorescence/radiometric assay
# [4] = target: Nonstructural protein 5A (Hepatitis C virus, UniProt Q5L478); test: Inhibition of HCV genotype 2a NS5A; design: species or system Hepatitis C virus subtype 2a
# [5] = target: RNA-directed RNA polymerase (Hepacivirus hominis, UniProt O39930, L419M); test: Inhibition of HCV genotype 1a NS5B L419M mutant; design: species or system Hepatitis C virus subtype 1a
# [6] = target: RNA-directed RNA polymerase (Hepacivirus hominis, UniProt O39930, L419I); test: Inhibition of HCV genotype 1a NS5B L419I mutant; design: species or system Hepatitis C virus subtype 1a
# [7] = target: RNA-directed RNA polymerase (Hepacivirus hominis, UniProt O39930, M423T); test: Inhibition of HCV genotype 1a NS5B M423T mutant; design: species or system Hepatitis C virus subtype 1a
# [8] = Metabolic stability in rat hepatocytes assessed as compound remaining at 10 uM after 2 hrs; format: ADME, cell-based, Hepatocyte; conditions: read-out: Stability
# [9] = Metabolic stability in rat liver microsomal S9 fraction assessed as compound remaining at 1 uM after 2 hrs in presence of NADPH; format: ADME, subcellular; conditions: read-out: Stability
# [10] = Metabolic stability in monkey hepatocytes assessed as compound remaining at 10 uM after 2 hrs; format: ADME, cell-based, Macaca mulatta, Hepatocyte; conditions: rhesus monkey, read-out: Stability
# [11] = Metabolic stability in dog liver microsomal S9 fraction assessed as compound remaining at 1 uM after 2 hrs in presence of NADPH/UDPGA; format: ADME, subcellular, Canis lupus familiaris; conditions: read-out: Stability
# [12] = Protein binding in dog liver at 1 uM; format: ADME, tissue-based, Canis lupus familiaris; conditions: read-out: PB (converted)
# [13] = Protein binding in dog plasma at 1 uM; format: ADME, cell-free, Canis lupus familiaris; conditions: read-out: PPB (converted)
# [14] = Metabolic stability in monkey liver microsomal S9 fraction assessed as compound remaining at 1 uM after 2 hrs in presence of NADPH/UDPGA; format: ADME, subcellular, Macaca mulatta; conditions: rhesus monkey, read-out: Stability
# [15] = Metabolic stability in human hepatocytes assessed as compound remaining at 10 uM after 2 hrs; format: ADME, cell-based, Hepatocyte; conditions: read-out: Stability
# [16] = Metabolic stability in human liver microsomal S9 fraction assessed as compound remaining at 1 uM after 2 hrs in presence of NADPH; format: ADME, subcellular; conditions: read-out: Stability
# [17] = Metabolic stability in human liver microsomal S9 fraction assessed as compound remaining at 1 uM after 2 hrs in presence of NADPH/UDPGA; format: ADME, subcellular; conditions: read-out: Stability
# [18] = target: Cytochrome P450 3A4 (Homo sapiens, UniProt P08684); test: Drug metabolism in human liver S9 fraction assessed as CYP3A4-mediated metabolite formation after 1 hr; format: ADME, subcellular; conditions: s9, 1 h
# [19] = Drug excretion in rat feces; format: ADME; conditions: in vivo
# [20] = target: Cytochrome P450 1A2 (Homo sapiens, UniProt P05177); test: Induction of CYP1A2 (unknown origin) in hepatocytes; format: ADME, cell-based
# [21] = Permeability from basolateral to apical side in human Caco2 cells; format: ADME, cell-based; conditions: Caco-2, read-out: permeability
# [22] = system: MDR1; test: Efflux ratio of permeability from basolateral to apical side over apical to basolateral side in MDCK cells expressing MDR1; format: ADME, cell-based, Canis lupus familiaris; conditions: dog
# [23] = AUC (0 to infinity) in Sprague-Dawley rat at 1 mg/kg, iv through bolus administration; format: ADME, organism-based; design: dose 1 mg/kg, route intravenous, time infinity; conditions: in vivo
# [24] = Half life in Sprague-Dawley rat at 1 mg/kg, iv through bolus administration; format: ADME, organism-based; conditions: in vivo
# [25] = Volume of distribution at steady state in Sprague-Dawley rat at 1 mg/kg, iv through bolus administration; format: ADME, organism-based; conditions: in vivo, read-out: Vdss
# [26] = Cmax in Sprague-Dawley rat at 3 mg/kg, po; format: ADME, organism-based; design: dose 3 mg/kg, route oral; conditions: in vivo
# [27] = Oral bioavailability in Sprague-Dawley rat at 3 mg/kg; format: ADME, organism-based; conditions: in vivo
# [28] = Ratio of drug level in liver to heart in Sprague-Dawley rat at 10 mg/kg, po; format: ADME, organism-based; conditions: in vivo
# [29] = Ratio of drug level in liver to kidney in Sprague-Dawley rat at 10 mg/kg, po; format: ADME, organism-based; conditions: in vivo
# [30] = Oral bioavailability in dog at 3 mg/kg; format: ADME, organism-based, Canis lupus familiaris; conditions: in vivo
# [31] = Volume of distribution in steady state in Fischer 344 rat at 1 mg/kg, iv through bolus administration; format: ADME, organism-based; conditions: in vivo, read-out: Vdss
# [32] = AUC (0 to infinity) in Fischer 344 rat at 3 mg/kg, po; format: ADME, organism-based; design: dose 3 mg/kg, route oral, time infinity; conditions: in vivo
# [33] = Cmax in Fischer 344 rat at 3 mg/kg, po; format: ADME, organism-based; design: dose 3 mg/kg, route oral; conditions: in vivo
# [34] = Oral bioavailability in Fischer 344 rat at 3 mg/kg; format: ADME, organism-based; conditions: in vivo
# [35] = Half life in Fischer 344 rat at 3 mg/kg; format: ADME, organism-based; conditions: in vivo
# [36] = AUC (0 to infinity) in dog at 1 mg/kg, iv through bolus administration; format: ADME, organism-based, Canis lupus familiaris; design: dose 1 mg/kg, route intravenous, time infinity; conditions: in vivo
# [37] = Clearance in dog at 1 mg/kg, iv through bolus administration; format: ADME, organism-based, Canis lupus familiaris; conditions: in vivo
# [38] = Half life in dog at 1 mg/kg, iv through bolus administration; format: ADME, organism-based, Canis lupus familiaris; conditions: in vivo
# [39] = Volume of distribution in steady state in dog at 1 mg/kg, iv through bolus administration; format: ADME, organism-based, Canis lupus familiaris; conditions: in vivo, read-out: Vdss
# [40] = AUC (0 to infinity) in monkey at 1 mg/kg, iv through bolus administration; format: ADME, organism-based, Macaca mulatta; design: dose 1 mg/kg, route intravenous, time infinity; conditions: rhesus monkey, in vivo
# [41] = Clearance in monkey at 1 mg/kg, iv through bolus administration; format: ADME, organism-based, Macaca mulatta; conditions: rhesus monkey, in vivo
# [42] = Volume of distribution in steady state in monkey at 1 mg/kg, iv through bolus administration; format: ADME, organism-based, Macaca mulatta; conditions: rhesus monkey, in vivo, read-out: Vdss
# [43] = Ratio of drug level in plasma to lungs in Sprague-Dawley rat at 10 mg/kg, po; format: ADME, organism-based, Lung/Plasma; conditions: in vivo
# [44] = Solubility of the compound in potassium phosphate buffer at pH 7; format: physicochemical
# [45] = Solubility of the compound in FaSSIF at pH 6.3; format: physicochemical
# [46] = Solubility of the compound in FeSSIF at pH 5.2; format: physicochemical
# [47] = system: NS3 protease (Hepacivirus C), C1KIQ2 [R155T]; test: Inhibition of telaprevir-resistant HCV NS3 protease R155T mutant; conditions: Hepacivirus hominis
# [48] = system: NS3 (Hepatitis C virus), A3EZJ3 [R155K,V36M]; test: Inhibition of telaprevir-resistant HCV NS3 protease V36M/R155K double mutant; conditions: Hepacivirus hominis
# [49] = system: Nonstructural protein 5A (Hepatitis C virus), Q5L478 [UNDEFINED MUTATION]; test: Inhibition of BMS-790052-resistant HCV genotype 1a NS5A P32L mutant; conditions: Hepatitis C virus subtype 1a
# [50] = system: Nonstructural protein 5A (Hepatitis C virus), Q5L478 [UNDEFINED MUTATION]; test: Inhibition of BMS-790052-resistant HCV genotype 1a NS5A Y93N mutant; conditions: Hepatitis C virus subtype 1a
# [51] = system: Nonstructural protein 5A (Hepatitis C virus), Q5L478 [Y93C]; test: Inhibition of BMS-790052-resistant HCV genotype 1a NS5A Y93C mutant; conditions: Hepatitis C virus subtype 1a
# [52] = system: Nonstructural protein 5A (Hepatitis C virus), Q5L478 [UNDEFINED MUTATION]; test: Inhibition of BMS-790052-resistant HCV genotype 1a NS5A Y93H mutant; conditions: Hepatitis C virus subtype 1a
# [53] = system: Nonstructural protein 5A (Hepatitis C virus), Q5L478 [UNDEFINED MUTATION]; test: Inhibition of BMS-790052-resistant HCV genotype 1b NS5A Y93H mutant; conditions: Hepatitis C virus subtype 1b
# [54] = system: MDCK; test: Ratio of permeability in MDCK cells expressing OATP1B1 to permeability in wild type MDCK cells; format: ADME, cell-based, Canis lupus familiaris; conditions: dog
compound,measurement,setting,value
CC(C)(C)C#Cc1cc(N(CC(=O)N2CCOCC2)C(=O)[C@H]2CC[C@H](C)CC2)c(C(=O)O)s1,CC50 at 96 h,[1],> 20000 nM
same,CC50 at 96 h,[2],> 20000 nM
same,inhibition,[3],inactive
same,pEC50,[4],5.32
same,pEC50,[5],6.62
same,pEC50,[6],6.40
same,pEC50,[7],6.55
same,"remaining at 2 h, 10 µM",[8],100%
same,"remaining at 2 h, 1 µM",[9],99%
same,"remaining at 2 h, 10 µM",[10],30%
same,"remaining at 2 h, 1 µM",[11],82%
same,fraction unbound at 1 µM,[12],0.14
same,fraction unbound at 1 µM,[13],0.025
same,"remaining at 2 h, 1 µM",[14],14%
same,"remaining at 2 h, 10 µM",[15],77%
same,"remaining at 2 h, 1 µM",[16],76%
same,"remaining at 2 h, 1 µM",[17],73%
same,Drug metabolism,[18],< 5%
same,Drug excretion,[19],Metabolite_Detected
same,Activity,[20],Not Active
same,Papp B→A,[21],9.8 ×10⁻⁶ cm/s
same,efflux ratio,[22],9.8
same,AUC,[23],4270 ng·h/mL
same,half-life,[24],2.35 h
same,Vd,[25],1.55 L/kg
same,Cmax,[26],1730 ng/mL
same,bioavailability,[27],69%
same,Ratio,[28],10
same,Ratio,[29],10
same,bioavailability,[30],57.3%
same,Vd,[31],0.86 L/kg
same,AUC(0-inf),[32],310 ng·h/mL
same,Cmax,[33],240 ng/mL
same,bioavailability,[34],6.5%
same,half-life,[35],2.1 h
same,AUC(0-inf),[36],1360 ng·h/mL
same,clearance,[37],10.1 mL/min/kg
same,half-life,[38],9.8 h
same,Vd,[39],1.57 L/kg
same,AUC(0-inf),[40],1730 ng·h/mL
same,clearance,[41],9.9 mL/min/kg
same,Vd,[42],0.23 L/kg
same,Ratio,[43],10
same,solubility,[44],1800 µg/mL
same,solubility,[45],1700 µg/mL
same,solubility,[46],800 µg/mL
same,inhibition,[47],Active
same,inhibition,[48],Active
same,inhibition,[49],Active
same,inhibition,[50],Active
same,inhibition,[51],Active
same,inhibition,[52],Active
same,inhibition,[53],Active
same,Ratio,[54],3
